Assay [1] deals with Candida albicans. Nature of the assay: Antifungal activity against Candida albicans. Type of assay: functional.
For assay [2], the system named is Cryptococcus neoformans. The assay can be described thus: Antifungal activity against Cryptococcus neoformans. It counts as functional.

1 compound from ChEMBL document CHEMBL1150227, “A new dammarane-type triterpene glycoside from Polyscias fulva” (2001) can be followed below.

What is called MIC is the least concentration at which growth counts as inhibited. A lower MIC goes with greater potency.

The structures appear in SMILES notation. Converted amounts (≈) assume the structure as drawn.

Take `C[C@@H]1O[C@@H](O[C@H]2[C@H](O[C@H]3CC[C@@]4(C)[C@@H](CC[C@]5(C)[C@@H]4CC=C4[C@@H]6CC(C)(C)CC[C@]6(C(=O)O)CC[C@]45C)[C@]3(C)CO)OC[C@H](O)[C@@H]2O)[C@H](O)[C@H](O)[C@H]1O` [ALPHA-HEDERIN]: the minimum inhibitory concentration (MIC) in assay [1] is 6.25 µg/mL (≈ 8.32 µM); in assay [2], 25 µg/mL (≈ 33.3 µM).
